Reference: patent US8192717B2, “Composition for diagnosing amyloid-related diseases” (Nagasaki University, priority 2004, dated 2012)

Assays:
Aβ(1-40) aggregates = target: T1, Aβ(1-40) aggregates (Homo sapiens, UniProt P05067); test: In vitro binding of [125I]-labelled compounds to Aβ aggregates (filtration, radioactivity on filter); conditions: [125I]-labelled compound; radioactivity remaining on filter in presence vs absence of Aβ aggregates
T1 construct: The amyloid β protein (Human, 1-40) [HCl form]; purchased Peptide Institute, Inc
T1 sequence (P05067 672-711 limits assumed): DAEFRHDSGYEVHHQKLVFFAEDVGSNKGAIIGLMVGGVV
Protocol: Aβ aggregates was dissolved in a buffer (pH 7.4) that contained 10 mM sodium phosphate and 1 mM EDTA, resulting in a concentration of 0.5 mg/ml. Thereafter, the obtained solution was incubated at 37° C. for 36 to 42 hours. A binding experiment was carried out using 12×75 mm borosilicate glass tubes. […] The obtained mixture was left at room temperature for 3 hours. Non-specific bond was calculated using nonradioactive compound 11 (1 μM). […] The radioactivity of a substance remaining in the filter used in filtration was measured with a γ counter. With regard to [^125I] compound 11, the Kd value thereof was calculated by the Scatchard analysis. In addition, using [^125I] compound 11 as a radioactive ligand, an inhibition experiment was carried out by the following method using the Aβ(1-40) aggregates and the Aβ(1-42) aggregates. […] The obtained mixture was left at room temperature for 3 hours. Non-specific bond was calculated using nonradioactive compound 11 (1 μM). The 50% inhibitory concentration was calculated using GraphPad Prism (GraphPad Software), and the inhibition constant (Ki value) was calculated according to the formula of Cheng-Prusoff, Ki=IC50/(1+[L]/Kd). In this formula, [L] represents the concentration of [^125I] compound 11, and Kd represents the dissociation constant of [^125I] compound 11 to the Aβ(1-40) aggregates and the Aβ(1-42) aggregates.

[1] = Radioactivity distribution in mouse body after intravenous administration of radioiodine labeled forms; conditions: for Distribution of radioactivity, Blood / Distribution of radioactivity, Brain / Distribution of radioactivity, Heart / Distribution of radioactivity, Intestine / Distribution of radioactivity, Kidney / Distribution of radioactivity, Liver / Distribution of radioactivity, Spleen: mouse, intravenous administration, mean (SD) of 3 to 5 mice
Protocol: Thereafter, 100 μl (0.5 to 1 μCi) of each labeled form was intravenously administered to each group consisting of three to five 5-week-old ddY male mice (25 to 30 g). 2, 10, 30, and 60 minutes after the intravenous administration, such mice were decapitated, and blood was collected. Thereafter, organs were excised, and the weight and radioactivity thereof were then measured.

[2] = normal mice, intravenous, [125I]-labelled form

SMILES | Distribution of radioactivity, Blood ([1]; 2 min after administration) | Distribution of radioactivity, Blood ([1]; 10 min after administration) | Distribution of radioactivity, Blood ([1]; 30 min after administration) | Distribution of radioactivity, Blood ([1]; 60 min after administration) | Distribution of radioactivity, Brain ([1]; 2 min after administration) | Distribution of radioactivity, Brain ([1]; 10 min after administration) | Distribution of radioactivity, Brain ([1]; 30 min after administration) | Distribution of radioactivity, Brain ([1]; 60 min after administration) | Distribution of radioactivity, Heart ([1]; 2 min after administration) | Distribution of radioactivity, Heart ([1]; 10 min after administration) | Distribution of radioactivity, Heart ([1]; 30 min after administration) | Distribution of radioactivity, Heart ([1]; 60 min after administration) | Distribution of radioactivity, Intestine ([1]; 2 min after administration) | Distribution of radioactivity, Intestine ([1]; 10 min after administration) | Distribution of radioactivity, Intestine ([1]; 30 min after administration) | Distribution of radioactivity, Intestine ([1]; 60 min after administration) | Distribution of radioactivity, Kidney ([1]; 2 min after administration) | Distribution of radioactivity, Kidney ([1]; 10 min after administration) | Distribution of radioactivity, Kidney ([1]; 30 min after administration) | Distribution of radioactivity, Kidney ([1]; 60 min after administration) | further results
COc1cc(/C=C/C(=O)c2cccc(I)c2)ccc1O [compound 31, (E)-3-(4-hydroxy-3-methoxyphenyl)-1-(3-iodophenyl)propan-2-en-1-one] |  |  |  |  |  |  |  |  |  |  |  |  |  |  |  |  |  |  |  |  | bindability to the Aβ aggregates (Aβ(1-40) aggregates): high binding affinity; ability to transfer to the brain (in words) [1, 2]: transfers to the brain; washing out / disappearance of radioactivity from the brain [1, 2]: washed out rapidly
CN(C)c1ccc(C=Cc2cc(=O)c3cc([125I])ccc3o2)cc1 [[125I]Compound 48] | 14.54 (3.37) % ID/g | 3.50 (1.13) % ID/g | 1.5 (0.22) % ID/g | 0.80 (0.21) % ID/g | 0.70 (0.10) % ID/g | 0.72 (0.14) % ID/g | 1.02 (0.23) % ID/g | 0.77 (0.25) % ID/g | 8.89 (1.94) % ID/g | 4.00 (0.93) % ID/g | 2.36 (0.51) % ID/g | 1.42 (0.38) % ID/g | 1.52 (0.09) % ID/g | 4.8 (0.74) % ID/g | 11.98 (1.26) % ID/g | 14.91 (4.18) % ID/g | 9.04 (1.72) % ID/g | 5.58 (1.07) % ID/g | 5.16 (1.06) % ID/g | 3.94 (1.25) % ID/g | Distribution of radioactivity, Liver ([1]; 2 min after administration): 20.56 (3.98) % ID/g; Distribution of radioactivity, Liver ([1]; 10 min after administration): 15.09 (2.63) % ID/g; Distribution of radioactivity, Liver ([1]; 30 min after administration): 12.82 (1.96) % ID/g; Distribution of radioactivity, Liver ([1]; 60 min after administration): 8.79 (1.80) % ID/g; Distribution of radioactivity, Spleen ([1]; 2 min after administration): 5.09 (0.75) % ID/g; Distribution of radioactivity, Spleen ([1]; 10 min after administration): 4.06 (0.66) % ID/g; Distribution of radioactivity, Spleen ([1]; 30 min after administration): 3.15 (0.70) % ID/g; Distribution of radioactivity, Spleen ([1]; 60 min after administration): 2.82 (0.36) % ID/g
CN(C)c1ccc(/C=C/C(=O)c2ccc(I)cc2)cc1 [compound 36, (E)-3-(4-(dimethylamino)phenyl)-1-(4-iodophenyl)propan-2-en-1-one] |  |  |  |  |  |  |  |  |  |  |  |  |  |  |  |  |  |  |  |  | bindability to the Aβ aggregates (Aβ(1-40) aggregates): high binding affinity
Nc1ccc(C=Cc2cc(=O)c3cc([125I])ccc3o2)cc1 [[125I]Compound 46] | 2.34 (0.16) % ID/g | 2.44 (0.19) % ID/g | 2.56 (0.64) % ID/g | 2.27 (0.47) % ID/g | 4.88 (0.47) % ID/g | 4.40 (0.44) % ID/g | 2.78 (0.72) % ID/g | 1.62 (0.40) % ID/g | 8.40 (0.47) % ID/g | 3.78 (0.35) % ID/g | 2.43 (0.70) % ID/g | 1.64 (0.29) % ID/g | 2.84 (0.18) % ID/g | 5.51 (0.55) % ID/g | 11.71 (1.27) % ID/g | 16.08 (2.44) % ID/g | 11.94 (1.49) % ID/g | 6.99 (0.91) % ID/g | 4.91 (1.07) % ID/g | 3.76 (0.91) % ID/g | Distribution of radioactivity, Liver ([1]; 2 min after administration): 13.23 (1.65) % ID/g; Distribution of radioactivity, Liver ([1]; 10 min after administration): 14.49 (1.10) % ID/g; Distribution of radioactivity, Liver ([1]; 30 min after administration): 10.27 (1.84) % ID/g; Distribution of radioactivity, Liver ([1]; 60 min after administration): 8.16 (1.33) % ID/g; Distribution of radioactivity, Spleen ([1]; 2 min after administration): 4.23 (0.62) % ID/g; Distribution of radioactivity, Spleen ([1]; 10 min after administration): 3.64 (0.38) % ID/g; Distribution of radioactivity, Spleen ([1]; 30 min after administration): 2.92 (0.73) % ID/g; Distribution of radioactivity, Spleen ([1]; 60 min after administration): 2.16 (0.85) % ID/g

Further lines, with some results ahead:

Distribution of radioactivity, Blood ([1]; 2 min after administration) | Distribution of radioactivity, Blood ([1]; 10 min after administration) | Distribution of radioactivity, Blood ([1]; 30 min after administration) | Distribution of radioactivity, Blood ([1]; 60 min after administration) | Distribution of radioactivity, Brain ([1]; 2 min after administration) | Distribution of radioactivity, Brain ([1]; 10 min after administration) | Distribution of radioactivity, Brain ([1]; 30 min after administration) | Distribution of radioactivity, Brain ([1]; 60 min after administration) | Distribution of radioactivity, Heart ([1]; 2 min after administration) | Distribution of radioactivity, Heart ([1]; 10 min after administration) | Distribution of radioactivity, Heart ([1]; 30 min after administration) | Distribution of radioactivity, Heart ([1]; 60 min after administration) | Distribution of radioactivity, Intestine ([1]; 2 min after administration) | Distribution of radioactivity, Intestine ([1]; 10 min after administration) | Distribution of radioactivity, Intestine ([1]; 30 min after administration) | Distribution of radioactivity, Intestine ([1]; 60 min after administration) | Distribution of radioactivity, Kidney ([1]; 2 min after administration) | Distribution of radioactivity, Kidney ([1]; 10 min after administration) | Distribution of radioactivity, Kidney ([1]; 30 min after administration) | Distribution of radioactivity, Kidney ([1]; 60 min after administration) | SMILES | further results
1.89 (0.28) % ID/g | 1.39 (0.10) % ID/g | 1.34 (0.07) % ID/g | 1.50 (0.09) % ID/g | 4.12 (0.15) % ID/g | 3.68 (0.18) % ID/g | 1.84 (0.12) % ID/g | 1.19 (0.04) % ID/g | 4.87 (0.66) % ID/g | 2.66 (0.12) % ID/g | 1.67 (0.14) % ID/g | 1.28 (0.12) % ID/g | 3.10 (0.61) % ID/g | 7.91 (1.05) % ID/g | 12.84 (1.18) % ID/g | 21.48 (3.17) % ID/g | 8.13 (1.28) % ID/g | 5.21 (0.44) % ID/g | 3.85 (0.33) % ID/g | 3.05 (0.25) % ID/g | CNc1ccc(-c2cc(=O)c3cc([125I])ccc3o2)cc1 [[125I]Compound 10] | Distribution of radioactivity, Liver ([1]; 2 min after administration): 16.28 (0.90) % ID/g; Distribution of radioactivity, Liver ([1]; 10 min after administration): 25.28 (0.31) % ID/g; Distribution of radioactivity, Liver ([1]; 30 min after administration): 18.61 (1.81) % ID/g; Distribution of radioactivity, Liver ([1]; 60 min after administration): 15.14 (0.89) % ID/g; Distribution of radioactivity, Spleen ([1]; 2 min after administration): 2.57 (1.54) % ID/g; Distribution of radioactivity, Spleen ([1]; 10 min after administration): 2.31 (0.01) % ID/g; Distribution of radioactivity, Spleen ([1]; 30 min after administration): 1.76 (0.23) % ID/g; Distribution of radioactivity, Spleen ([1]; 60 min after administration): 1.52 (0.29) % ID/g
3.21 (0.38) % ID/g | 2.44 (0.082) % ID/g | 2.19 (0.29) % ID/g | 1.79 (0.23) % ID/g | 2.84 (0.35) % ID/g | 2.96 (0.25) % ID/g | 1.86 (0.30) % ID/g | 0.99 (0.09) % ID/g | 6.92 (1.41) % ID/g | 3.31 (0.69) % ID/g | 2.09 (0.39) % ID/g | 1.47 (0.27) % ID/g | 2.59 (0.38) % ID/g | 8.55 (1.21) % ID/g | 16.72 (2.58) % ID/g | 19.16 (2.63) % ID/g | 10.41 (1.33) % ID/g | 7.05 (0.56) % ID/g | 5.48 (0.97) % ID/g | 3.52 (1.36) % ID/g | CNc1ccc(C=Cc2cc(=O)c3cc([125I])ccc3o2)cc1 [[125I]Compound 47] | Distribution of radioactivity, Liver ([1]; 2 min after administration): 14.55 (2.64) % ID/g; Distribution of radioactivity, Liver ([1]; 10 min after administration): 14.41 (2.52) % ID/g; Distribution of radioactivity, Liver ([1]; 30 min after administration): 11.13 (1.63) % ID/g; Distribution of radioactivity, Liver ([1]; 60 min after administration): 7.82 (0.94) % ID/g; Distribution of radioactivity, Spleen ([1]; 2 min after administration): 3.88 (0.74) % ID/g; Distribution of radioactivity, Spleen ([1]; 10 min after administration): 4.42 (1.05) % ID/g; Distribution of radioactivity, Spleen ([1]; 30 min after administration): 2.66 (0.47) % ID/g; Distribution of radioactivity, Spleen ([1]; 60 min after administration): 1.51 (0.19) % ID/g
